Assay results reported in US20250205249A1, “COMPOSITION FOR USE IN ENHANCING, BOOSTING, RESTORING AND/OR PREVENTING THE DECLINE OF COGNITIVE FUNCTIONS, ADJUVANT COMPOSITION, METHOD FOR USING THE COMPOSITION OR ADJUVANT COMPOSITION, AND KIT HAVING THE COMPOSITION OR ADJUVANT COMPOSITION” (Instytut Badawczy Innowacyjno Rozwojowy "Biotomed" Sp. Z O.O, priority 2023, published 2025).
Where two headings read alike, the source gives them in different places. Marks after values point to notes of the source that are not given here.

Experiments:
APLP2 = conditions: 100 mg/kg/day, i.g.
Method: (§1) The study was conducted on Wistar rats weighing 220-250 g. All animals were subjected to two weeks of observation prior to the experiment to exclude infection. Rats were housed in standard cages, 5 individuals in each. The animals stayed in a room with a temperature of 22±2° C., air humidity 60-70% and in natural lighting (12/12 in a day/night cycle).
(§2) The Alzheimer's disease model was induced by administering aluminum chloride AICl3 (200 mg/kg body weight, i.g.) to the animals for 120 days. […] Animals were assigned to groups: control group receiving saline (sham operation), group with AlCl3 without treatment and group with AlCl3 receiving betulin (100 mg/kg/day, i.g., within the last 50% of the days of the experiment) and betulin in the complex with cyclodextrin (100 mg/kg/day, i.g., in the last 50% of the days of the experiment).
(§3) On the last day of the experiment, the animals were anaesthetized. Brains were quickly collected and then divided into different areas. The entire procedure was carried out in a cold room (+4° C.) on ice, and the samples were frozen in liquid nitrogen and stored in an ultra-low temperature refrigerator for further analysis.
(§4) In order to measure rat brain damage caused by aluminum chloride, biochemical determinations were carried out on the collected brain tissue fragments.

[1] = test system: rats with Alzheimer-like neurodegeneration; conditions: Morris water maze, 5th day of testing; AlCl3 rats
Method: as §1
(§5) The Alzheimer's disease model was induced by administering aluminum chloride AICl3 (200 mg/kg body weight, i.g.) to the animals for 120 days. […] Animals were assigned to groups: control group receiving saline (sham operation), group with AlCl3 without treatment and group with AlCl3 receiving betulin (100 mg/kg/day, i.g., within the last 50% of the days of the experiment) and betulin in the complex with cyclodextrin (100 mg/kg/day, i.g., in the last 50% of the days of the experiment). Betulin or betulin in a complex with cyclodextrin was administered orally with an intragastric probe in a 2% starch emulsion, reflecting the composition of the finished preparation given in the examples of use.

TNFα = conditions: 100 mg/kg/day, i.g.
Method: as §1, §2, §3, §4

[2] = test system: differentiated SH-SY5Y neuroblastoma cells; assay: Early apoptosis of H2O2-treated cells, coincubation variant; type: cell-based, human; conditions: 24 h coincubation with H2O2
Method: A coincubation variant was used, i.e. simultaneous administration of betulin or a reference drug and H2O2. H2O2 concentrations were EC50 or EC80 (resulting in a 50% and 80% reduction in cell viability in viability assays). Betulin concentrations were 1 μM and 5 μM, while NAC concentrations were 0.1 mM and 1 mM. The coincubation time of the test substances with H2O2 was 24 h.

[3] = test system: differentiated SH-SY5Y cells; assay: Neuroprotection against H2O2, preincubation variant; type: cell-based, human
From the text: (§6) Human neuroblastoma cells of the SH-SY5Y lineage were chosen to perform the experiment.
(§7) Based on the literature review and research work, hydrogen peroxide H2O2 was chosen as the neurotoxin.

[4] = test system: differentiated SH-SY5Y neuroblastoma cells; conditions: XTT assay, tested 1-30 μM
From the text: as §6

Aβ1-42 protein = conditions: 100 mg/kg/day, i.g.
Method: as §1, §2, §3, §4

[5] = test system: oxidative stress parameters (GSH, GSSG, G6PD, glutathione reductase, glutathione-S-transferase, GPO); assay: Glutathione content and antioxidant enzymes activities in brain hemispheres during Al-intoxication; type: in vivo, Wistar rats
From the text: Influence of Betulin on Oxidative Stress Parameters in Rats with Alzheimer-Like Neurodegeneration

[6] = test system: differentiated neuroblastoma cells (SH-SY5Y); assay: Neuroprotection against H2O2, postincubation variant; type: cell-based, human; conditions: 1 h and 3 h H2O2 at EC50, then 24 h post-incubation
Method: as §6
Two time variants of incubation with hydrogen peroxide in differentiated neuroblastoma culture, i.e. 1 h and 3 h, were used in post-incubation.

[7] = test system: differentiated SH-SY5Y neuroblastoma cells; assay: Neuroprotection against H2O2, coincubation variant; type: cell-based, human; conditions: for Improvement in cell viability relative to the positive control: coincubation with H2O2; for Increase in viability relative to cells treated with hydrogen peroxide: 24 h co-incubation, H2O2 at EC50
From the text: as §6, §7

[8] = test system: rats with Alzheimer-like neurodegeneration; assay: Beam walking test (motor coordination); type: in vivo, Wistar rats; conditions: 5th day of testing, AlCl3 rats
Method: as §1, §5

[9] = cited from earlier work; for Total daily oral dose may reach: as dietary supplement (HP-β-cyclodextrin: as oral pharmaceutical); for NOAEL (No Observed Adverse Effect Level): oral intake
renal tubular epithelium = conditions: cited from earlier work
[10] = rat hippocampal homogenate, AlCl3 model
[11] = brain hemispheres, Al-intoxication

In the case of C=C(C)[C@@H]1CC[C@]2(CO)CC[C@]3(C)[C@H](CC[C@@H]4[C@@]5(C)CC[C@H](O)C(C)(C)[C@@H]5CC[C@]43C)[C@@H]12 [betulin], the “Effect on APLP2 concentration in hippocampal homogenates (in words)” value (APLP2) is reported as “reduced the concentration of APLP2”, the APLP2 (APLP2; rat brain hippocampus homogenate, AlCl3 model) is reported as 588.1 ± 36.4^ab pg/100 mg and the “Time spent in a target quadrant” value [1] is reported as 26 ± 8^ab seconds. For the same compound, the “Time to reach the platform” value [1] was 38 ± 7^b seconds, the “Effect on TNFα concentration in hippocampal homogenates (in words)” value (TNFα) was “reduced the concentration of TNFα” and the TNF-α (TNFα; [10]) was 5.88 ± 0.39 ^b pg/mg. The “Percentage of apoptotic cells” value ([2]; betulin 1 μM) was 2.7%, the “Percentage of apoptotic cells” value ([2]; betulin 5 μM) was 2.5% and the “Protective effect against H2O2 (in words)” value ([3]; betulin 1, 2, 5 and 10 μM, toxin at EC50) was “statistically significant protective effect”. For the same compound, the “Protective effect against H2O2 (in words)” value ([3]; betulin 15 and 20 μM) was “no protective effect”, the “Concentration above which a cytotoxic effect is induced (viability below the 70% threshold)” value [4] was > 20 µM and the “Effect on β-amyloid concentration in hippocampal homogenates (in words)” value (Aβ1-42 protein) was “reduced the concentration of β-amyloid”. The “Protein Aβ1-42” value (Aβ1-42 protein; [10]) was 83.25 ± 6.40^ab pg/100 mg, the “Effect on GSH, GR and GSTs activity (in words)” value ([5]; animals with induced AD) was “significant increase in the activity of all enzymes” and the “Effect on GSSG, G6PD and GPO activity (in words)” value ([5]; animals with induced AD) was “significant decrease in the activity of these enzymes”. For the same compound, the G6PD [5, 11] was 28.61 ± 1.62^b nmol NADPH/min/mg protein, the GPO [5, 11] was 33.63 ± 2.09^b umol GSH/min/mg protein and the GSH [5, 11] was 26.09 ± 2.19^b nmol/mg protein. For the same compound, the GSSG [5, 11] was 0.112 ± 0.002^b nmol/mg protein, the Glutathione reductase [5, 11] was 11.59 ± 1.39 nmol NADPH/min/mg protein and the Glutathione-S-transferase [5, 11] was 129.90 ± 10.45^b nmol CDNB/min/mg protein. The “Protective effect after H2O2 treatment (in words)” value [6] was “no increase in viability relative to the positive control”, the “Improvement in cell viability relative to the positive control” value ([7]; betulin 1 μM) was 27% and the “Improvement in cell viability relative to the positive control” value ([7]; betulin 5 μM) was 18%. For the same compound, the “Percent of successful trials” value [8] was 100^b % and the “Time to reach the shelter” value [8] was 18.6 ± 3.6^ab seconds.

For OC[C@H]1O[C@@H]2O[C@H]3[C@H](O)[C@@H](O)[C@@H](O[C@H]4[C@H](O)[C@@H](O)[C@@H](O[C@H]5[C@H](O)[C@@H](O)[C@@H](O[C@H]6[C@H](O)[C@@H](O)[C@@H](O[C@H]7[C@H](O)[C@@H](O)[C@@H](O[C@H]8[C@H](O)[C@@H](O)[C@@H](O[C@H]1[C@H](O)[C@H]2O)O[C@@H]8CO)O[C@@H]7CO)O[C@@H]6CO)O[C@@H]5CO)O[C@@H]4CO)O[C@@H]3CO [β-cyclodextrin], the “Total daily oral dose may reach” value [9] is given as 500 mg/day and the “NOAEL (No Observed Adverse Effect Level)” value [9] is given as 10 mg/kg/day.

In the case of OC[C@H]1O[C@@H]2O[C@H]3[C@H](O)[C@@H](O)[C@@H](O[C@H]4[C@H](O)[C@@H](O)[C@@H](O[C@H]5[C@H](O)[C@@H](O)[C@@H](O[C@H]6[C@H](O)[C@@H](O)[C@@H](O[C@H]7[C@H](O)[C@@H](O)[C@@H](O[C@H]1[C@H](O)[C@H]2O)O[C@@H]7CO)O[C@@H]6CO)O[C@@H]5CO)O[C@@H]4CO)O[C@@H]3CO [α-cyclodextrin], the “Total daily oral dose may reach” value [9] is given as 6000 mg/day and the “Renal toxicity after parenteral administration (in words)” value (renal tubular epithelium; rat, in vivo) is given as “renal toxicity at relatively low doses”.

In the case of RM-β-cyclodextrin, the “Renal toxicity after parenteral administration (in words)” value (renal tubular epithelium; parenteral administration) is given as “renal toxicity at relatively low doses”.

In the case of CC(=O)N[C@@H](CS)C(=O)O [NAC, N-acetyl-L-cysteine, reference compound], the “Induction of early apoptosis (percentage of apoptotic cells)” value ([2]; NAC 0.1 mM) is reported as 12.2%, the “Induction of early apoptosis (percentage of apoptotic cells)” value ([2]; NAC 1 mM) is reported as 12.0% and the “Protective effect against H2O2 (in words)” value ([3]; 24 h preincubation, NAC 2.5 mM to 0.01 mM, H2O2 at EC50) is reported as “statistically significant (####p<0.001) protective effect on cells (no decrease in viability)”. For the same compound, the “Protective effect after H2O2 treatment (in words)” value [6] was “induced a protective effect in a NAC concentration-dependent manner”, the “Increase in viability relative to cells treated with hydrogen peroxide” value ([7]; NAC 0.01 mM) was 12% and the “Increase in viability relative to cells treated with hydrogen peroxide” value ([7]; NAC 0.1 mM) was 40%. For the same compound, the “Increase in viability relative to cells treated with hydrogen peroxide” value ([7]; NAC 1 mM) was 54%.

In the case of OC[C@H]1O[C@@H]2O[C@H]3[C@H](O)[C@@H](O)[C@@H](O[C@H]4[C@H](O)[C@@H](O)[C@@H](O[C@H]5[C@H](O)[C@@H](O)[C@@H](O[C@H]6[C@H](O)[C@@H](O)[C@@H](O[C@H]7[C@H](O)[C@@H](O)[C@@H](O[C@H]8[C@H](O)[C@@H](O)[C@@H](O[C@H]9[C@H](O)[C@@H](O)[C@@H](O[C@H]1[C@H](O)[C@H]2O)O[C@@H]9CO)O[C@@H]8CO)O[C@@H]7CO)O[C@@H]6CO)O[C@@H]5CO)O[C@@H]4CO)O[C@@H]3CO [γ-cyclodextrin], the “Total daily oral dose may reach” value [9] is given as 10,000 mg/day, the “NOAEL (No Observed Adverse Effect Level)” value [9] is given as 100 mg/kg/day and the “Dose showing only reversible vacuolation in the renal tubular epithelium” value (renal tubular epithelium; rats, high doses) is given as > 600 mg/kg.

In the case of HP-β-cyclodextrin, the “Total daily oral dose may reach” value [9] is listed as 8000 mg/day.
